From US11464864B2, “Drug-bound compound and use thereof” (priority 2018, dated 2022) come the findings set out here.

pIC50: −log10 of the molar value. Where two headings read alike, the source gives them in different places.

In assay [1] the test system is HeLa cells. Description: Identification of cell uptake by confocal microscopy. The class given is cell-based. As to conditions: 10 µM compound, serum-free DMEM, 37° C., 30 minutes. The protocol:
(§1) High glucose Dulbecco's modified Eagle's medium (DMEM), Roswell Park Memorial Institute (RPMI) 1640, Dulbecco's phosphate buffered saline, pH 7.4 (DPBS), fetal bovine serum (FBS), and trypsin/EDTA were obtained from Gibco™ and Thermo Fischer Scientific. Mitotracker and Lysotracker were obtained from Invitrogen Inc. (USA). 3-(4,5-Dimethyl-2-thiazolyl)-2,5-diphenyl-2H-tetrazolium bromide (MTT) was purchased from Sigma-Aldrich Korea Ltd. All solutions were prepared using Milli-Q purified water […]. HeLa cells were cultured in 10% (v/v) FBS containing DMEM and penicillin at 37° C. under a wet 5% CO2 environment. For SW480 cells and HT-29 cells, RMPI 1640 medium was used.
(§2) HeLa cells (1×10^5 cells per well) were seeded in a 35 mm cover glass bottom dish (SPL Life Sciences Co., Ltd., Korea) and incubated for 24 hours. […] After incubation at 37° C. for 30 minutes, the cells were washed three times with cold PBS to remove non-internalized samples. Live HeLa cells were examined with a confocal laser scanning microscope (Olympus Fluoview FV1000) equipped with an oil immersion lens (NA 1.30, 40×). […] Each analysis was repeated three times.

Assay [2] relates to HeLa cells. How it is done:
as §2

A further assay has as its system HT-29 cells. Description: Measurement of cytotoxicity, MTT assay. The note with it: Homo sapiens, 48 hours incubation, read-out: IC50 (cell viability, MTT). The class given is cell-based. The protocol: as §1
(§3) SW480 cells and HT-29 cells (4.5×10^3 cells per well) were seeded in a 96-well plate. After 24 hours, the medium was replaced with serum-free RMPT 1640. […] The treated cells were incubated for 48 hours, washed with cold PBS, and then exposed to MTT in the medium for 4 hours. The medium was replaced with DMSO, and the dissolved formazan dye was quantified by measuring the absorbance at 500 nm. Non-treated cells were measured in the same manner as a control.
Background: Tetrazolium assays rely on reduction of a dye to a coloured formazan, in cell work by metabolically active cells.

For another assay, the system named is SW480 cells. Description: Measurement of cytotoxicity, MTT assay. The format is cell-based. As to conditions: Homo sapiens, 48 hours incubation, read-out: IC50 (cell viability, MTT). How it is done:
as §1, §3

Take “1-O-[20-O—(N-succinyl-6-aminohexanoyl)camptothecin]-2,3,4,5-tetra-O—(N-{bis-[3-N′,N″-bis-(tert-butoxycarbonyl)-guanidino)-propyl]}-6-aminohexanoyl)-6-O-[6-(fluoresceinyl-5-thioureido)-hexanoyl]-D-sorbitol⋅8HCl [compound (10)]”: the “Cell uptake (intracellular FITC fluorescence in live cells)” value in the assay on HeLa cells [1] was “strong green fluorescence appears mainly in the cytoplasm”. Besides, the Intracellular localization result with HeLa cells [2] (HeLa cells, 10 μM) is on record as “intracellular localization for mitochondria”; in the assay with HeLa cells [2] (HeLa cells, 20 μM, incubated 30 minutes) it was “fluorescence exists even inside the nucleus”. The “Co-localization with Lysotracker (lysosomal marker)” value in the assay on HeLa cells [2] (HeLa cells, Lysotracker 200 nM) was “co-localization was not observed”. Moreover, the “Co-localization with Mitotracker (mitochondrial marker)” value in the assay with HeLa cells [2] (live HeLa cells, 10 uM for 30 minutes, then Mitotracker 100 nM for 30 minutes) is recorded as “Co-localization was markedly observed”.
With “20-O-[6-(fluoresceinyl-5-thioureido)-hexanoyl)camptothecin [compound (4)]”, the “Cell uptake (intracellular FITC fluorescence in live cells)” value in the assay on HeLa cells [1] is “intracellular fluorescence was not observed”.
For orientation: pIC50 means −log10 of the IC50, conventionally taken in molar units. As for `CC[C@@]1(O)C(=O)OCc2c1cc1n(c2=O)Cc2cc3ccccc3nc2-1` [CPT, Camptothecin], the negative logarithm of the IC50 (pIC50) is 6.00 in the assay with HT-29 cells and 5.82 in the assay on SW480 cells.
